Experimental data as given in patent publication US11135214B2, “Methods for enhancing the bio availability and exposure of a voltage-gated potassium channel opener” (priority 2018, dated 2021).
Values joined by “and” are separate entries in the source; they are usually repeats but may differ in a detail not shown here. Identical values can stand only once.

Assays:
[1] = test system: corticospinal excitability; experiment: TMS crossover study, TMS-EMG resting motor threshold (RMT); assay type: in vivo, human; conditions: for Resting Motor Threshold, post-dose change from baseline: individual subjects; for Resting Motor Threshold, post-dose change from baseline (Mean): mean of subjects
Description: PD assessments included resting state electroencephalogram (RS-EEG); TMS-EMG measurements including resting motor threshold (RMT), active motor threshold (AMT), and short-interval intracortical inhibition (SICI); and TMS-EEG measurements. All 20 subjects underwent TMS-EMG and TMS-EEG sessions prior to dosing on Days 1 and 7 and at 2 and 4 h after dosing. […] For the 6 h timepoint, RMT was performed for 16 subjects, and AMT, EEG resting state, and TMS-EEG was performed for 8 subjects. RMT and AMT values are reported as percentages of maximum stimulator output (% MSO). Drug-induced modulation of TMS-EMG parameters were evaluated over the 3 timepoints (2, 4, and 6 h) and for the timepoint with the highest drug exposure. Individual and averaged RMT values at baseline and change each timepoint for Compound A and placebo for all 20 subjects are presented in Table 18. […] In addition, RMT could not be registered for Subject 912 at 2 hours after Compound A intake.

cortical excitability = experiment: TMS crossover study, TMS-induced oscillations; assay type: in vivo, human
Description: Before drug intake, at baseline, TMS induced an early increase of theta/alpha power followed by a beta power decrease (de-synchronization) and a final late response of increased beta power. The effects of the active compound on TMS-induced oscillations were then analysed by means of a cluster-based permutation analysis following the same procedure as adopted in the analysis of TEPs. Theta (4-7 Hz), alpha (8-12 Hz) and beta (13-30 Hz) TMS-induced oscillations were compared from 30 ms (the first time-frequency point considered artefact free) to 800 ms between drug conditions. This method was preferred instead of a predetermined set of time windows, given the absence of a consensus for time windows of interest to be used in the TMS induced oscillation analysis. Also, the present cluster-based statistics approach is appropriate for exploratory analyses, as it minimizes false-positives involved in testing multiple time-points.

[2] = single 20 mg dose, 2 h post-dose
[3] = single 20 mg dose, 4 h post-dose
[4] = single 20 mg dose, 6 h post-dose
[5] = at highest Compound A plasma concentration vs pre-dose

Cc1cc(N2CCc3cc(F)ccc3C2)cc(C)c1NC(=O)CC(C)(C)C [Compound A, N-[4-(6-fluoro-3,4-dihydro-1H-isoquinolin-2-yl)-2,6-dimethylphenyl]-3,3-dimethylbutanamide]
RMT ([1]; 20 mg single dose): significant increase in RMT
RMT increase, mean±SEM ([1]; 20 mg, 6 h): 4.9±0.7%
effect on RMT ([1]; 20 mg, 6 h post-dose): > 4%
Resting Motor Threshold, post-dose change from baseline [1, 2]: 3 % MSO (4×) and 1 % MSO (4×) and 0 % MSO (7×) and 2 % MSO (3×) and 6 % MSO
Resting Motor Threshold, post-dose change from baseline [1, 3]: 7 % MSO (2×) and 1 % MSO (4×) and 0 % MSO (4×) and 6 % MSO (2×) and 3 % MSO (3×) and 5 % MSO and 10 % MSO and 2 % MSO (2×) and 4 % MSO
Resting Motor Threshold, post-dose change from baseline [1, 4]: 8 % MSO (2×) and 4 % MSO (3×) and 6 % MSO (2×) and 10 % MSO and 1 % MSO (2×) and 0 % MSO and 7 % MSO (3×) and 3 % MSO (2×)
Resting Motor Threshold, post-dose change from baseline (Mean) [1, 2]: 1.5 % MSO
Resting Motor Threshold, post-dose change from baseline (Mean) [1, 3]: 3.1 % MSO
Resting Motor Threshold, post-dose change from baseline (Mean) [1, 4]: 4.9 % MSO
RMT compared to time matched placebo ([1]; single 20 mg dose, 2, 4, and 6 h post-dose): increased RMT from baseline
Modulation of TMS-induced oscillations, Alpha (cortical excitability; 2 h after dosing vs pre-dose): Not significant
Modulation of TMS-induced oscillations, Beta (cortical excitability; 2 h after dosing vs pre-dose): Not significant
Modulation of TMS-induced oscillations, Theta (cortical excitability; 2 h after dosing vs pre-dose): Not significant
Modulation of TMS-induced oscillations, Alpha (cortical excitability; 4 h after dosing vs pre-dose): ↓ Alpha 250-390 ms
Modulation of TMS-induced oscillations, Beta (cortical excitability; 4 h after dosing vs pre-dose): ↑ Beta 250-330 ms
Modulation of TMS-induced oscillations, Theta (cortical excitability; 4 h after dosing vs pre-dose): ↓ Theta 30-180 ms
theta TMS-induced oscillations (cortical excitability; all available subjects, 2 h post-dose): trend to suppress
alpha TMS-induced oscillations (cortical excitability; all available subjects, 4 h, p=0.03, 250 to 400 ms): suppressed
theta induced oscillations (cortical excitability; all available subjects, 6 h, p=0.03, 80 to 300 ms): significant depression
alpha band TMS-induced oscillations (cortical excitability; all available subjects, 6 h, trend p=0.07, 270-390 ms): trend to suppress
Modulation of TMS-induced oscillations, Alpha (cortical excitability; [5]): ↓ Alpha 220-400 ms
Modulation of TMS-induced oscillations, Beta (cortical excitability; [5]): ↑ Beta 210-310 ms
Modulation of TMS-induced oscillations, Theta (cortical excitability; [5]): ↓ Theta 30-390 ms
early theta TMS-induced oscillations (cortical excitability; concentration analysis N=16, p<0.001, 30 to 390 ms): suppressed
alpha TMS-induced oscillations (cortical excitability; concentration analysis N=16, p=0.02, 220 to 400 ms): suppressed
beta TMS-induced power (cortical excitability; concentration analysis N=16, p=0.04, 220 to 310 ms): increased
TMS-induced oscillations (cortical excitability; subjects with drug exposure, 2 h post-dose): did not modulate oscillations
early theta TMS-induced oscillations (cortical excitability; subjects with drug exposure, 4 h, p=0.03, 30 to 180 ms): suppressed
alpha TMS-induced oscillations (cortical excitability; subjects with drug exposure, 4 h, p=0.03, 250 to 390 ms): suppressed
beta TMS-induced desynchronization (cortical excitability; subjects with drug exposure, 4 h, p=0.04, 250 to 330 ms): increased
theta induced oscillations (cortical excitability; subjects with drug exposure, 6 h, p<0.001, 30 to 280 ms): significant depression
